# Measurements as given in ChEMBL document CHEMBL2074112 (Br J Cancer, 1996).
# Target: ATP-dependent translocase ABCB1 (Homo sapiens, UniProt P08183)
# Test: TP_TRANSPORTER: increase in Rhodamine 123 intracellular accumulation (R123: 1.66 uM, Staurosporine: 80 uM) in MCF7/Adr cells
# Assay type: functional, cell-based
# Settings: nci/adr-res
# Sequence of ATP-dependent translocase ABCB1 (P08183 whole entry): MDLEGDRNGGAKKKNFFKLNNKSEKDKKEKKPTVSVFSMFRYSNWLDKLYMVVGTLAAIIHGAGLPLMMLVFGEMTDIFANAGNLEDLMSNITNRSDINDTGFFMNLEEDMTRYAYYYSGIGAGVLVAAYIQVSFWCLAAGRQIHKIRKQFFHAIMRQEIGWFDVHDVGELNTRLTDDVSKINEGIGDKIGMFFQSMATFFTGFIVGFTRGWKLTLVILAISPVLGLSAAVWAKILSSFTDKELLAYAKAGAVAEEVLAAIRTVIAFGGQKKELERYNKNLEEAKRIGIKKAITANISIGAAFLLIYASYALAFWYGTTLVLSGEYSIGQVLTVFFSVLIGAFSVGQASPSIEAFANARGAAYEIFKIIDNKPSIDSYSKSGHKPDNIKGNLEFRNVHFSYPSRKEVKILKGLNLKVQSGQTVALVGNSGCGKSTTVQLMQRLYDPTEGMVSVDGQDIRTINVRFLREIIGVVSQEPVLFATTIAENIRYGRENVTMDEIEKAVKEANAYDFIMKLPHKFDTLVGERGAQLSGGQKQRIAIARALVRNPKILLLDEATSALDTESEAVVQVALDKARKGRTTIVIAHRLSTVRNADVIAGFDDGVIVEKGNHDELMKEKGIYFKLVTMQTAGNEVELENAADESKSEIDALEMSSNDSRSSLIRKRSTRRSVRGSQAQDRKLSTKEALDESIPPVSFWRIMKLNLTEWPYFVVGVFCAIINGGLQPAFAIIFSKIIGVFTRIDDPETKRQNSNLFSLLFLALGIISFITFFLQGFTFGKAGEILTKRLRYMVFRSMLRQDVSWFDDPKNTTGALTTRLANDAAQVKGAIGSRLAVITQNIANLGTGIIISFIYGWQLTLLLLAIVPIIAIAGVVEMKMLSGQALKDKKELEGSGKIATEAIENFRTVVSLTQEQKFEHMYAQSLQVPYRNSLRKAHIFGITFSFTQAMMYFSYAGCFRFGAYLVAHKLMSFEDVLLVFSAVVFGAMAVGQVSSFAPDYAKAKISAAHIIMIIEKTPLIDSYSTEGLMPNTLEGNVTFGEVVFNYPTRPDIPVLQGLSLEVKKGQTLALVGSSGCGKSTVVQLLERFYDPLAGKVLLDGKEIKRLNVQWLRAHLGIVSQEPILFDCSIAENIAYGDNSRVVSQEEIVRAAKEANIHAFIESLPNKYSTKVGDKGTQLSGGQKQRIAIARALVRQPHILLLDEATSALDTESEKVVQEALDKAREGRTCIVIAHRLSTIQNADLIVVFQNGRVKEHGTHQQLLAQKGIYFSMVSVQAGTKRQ
smiles,measurement,value
CN[C@@H]1C[C@H]2O[C@@](C)([C@@H]1OC)n1c3ccccc3c3c4c(c5c6ccccc6n2c5c31)C(=O)NC4 [STAUROSPORINE],Activity,140%
